Reference: the supplement of paper PMC11451515

Experiments:
Conditions in all cases: 48 h
SEM cells [1] = assay: AUC of viability dose-response curve (% viability x log10 dose units); higher = less sensitive
In short: (§1)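 Leukemia cells adapted to each medium were seeded at 500 or 1000 cells/well in 1536-well plates and dosed with library compounds in DMSO at 11 threefold doses from 47 μM to 0.79 nM for 48 h at 37°C. CellTiter-Glo One luminescence was normalised per plate to DMSO and cell-free wells, then fitted with a four-parameter log-logistic model over log10 doses. Area under the curve was taken from this fit by the trapezoidal rule, with curves above full viability scaled and curves failing quality control removed.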

NOMO1 [2] = assay: as above
In short: as §1

P12-Ichikawa [3] = assay: as above
In short: as §1

SEM cells [4] = assay: cell viability relative to DMSO control; higher = less cytotoxic
In short: (§2)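 Library compounds in DMSO were pin-dosed in an 11-point threefold series (47 μM to 0.79 nM) onto leukemia cells in 1536-well plates (5 μl). Plates held 500 cells/well of NOMO1 or SEM or 1000 cells/well of P12-Ichikawa, each adapted for at least four passages in each medium. Luminescence was read with CellTiter-Glo One after 48 h at 37°C. Viability means the per-plate percentage relative to DMSO wells, using cell-free wells as background.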

NOMO1 [5] = assay: as above
In short: as §2

P12-Ichikawa [6] = assay: as above
In short: as §2

CC(C)(C)c1cc(NC(=O)Nc2ccc(-c3cn4c(n3)sc3cc(OCCN5CCOCC5)ccc34)cc2)no1
AUC of viability dose-response curve
Conditions	NOMO1 [2]	P12-Ichikawa [3]	SEM cells [1]
HPLM + 10% dialyzed FBS	432	468	188
RPMI 5 mM glucose + 10% FBS	394	409	232
RPMI 5 mM glucose + 10% dialyzed FBS	435	442	176

cell viability [%]
Conditions	NOMO1 [5]	P12-Ichikawa [6]	SEM cells [4]
HPLM + 10% dialyzed FBS, 0.000781 µM	92.8	88.7	66.8
HPLM + 10% dialyzed FBS, 0.00234 µM	93.9	99.1	53.7
HPLM + 10% dialyzed FBS, 0.00702 µM	90.5	97.4	45.8
HPLM + 10% dialyzed FBS, 0.0211 µM	104	108	44.3
HPLM + 10% dialyzed FBS, 0.0632 µM	101	95.3	32.2
HPLM + 10% dialyzed FBS, 0.19 µM	102	99.4	38.2
HPLM + 10% dialyzed FBS, 0.569 µM	87.3	104	46.6
HPLM + 10% dialyzed FBS, 1.71 µM	99.7	101	30
HPLM + 10% dialyzed FBS, 5.12 µM	110	94.4	30.1
HPLM + 10% dialyzed FBS, 15.4 µM	123	101	26.1
HPLM + 10% dialyzed FBS, 46.1 µM	96.5	91	27.8
RPMI 5 mM glucose + 10% FBS, 0.000781 µM	76.8	83.8	80.9
RPMI 5 mM glucose + 10% FBS, 0.00234 µM	76	89.9	61.9
RPMI 5 mM glucose + 10% FBS, 0.00702 µM	85.1	88.1	67.7
RPMI 5 mM glucose + 10% FBS, 0.0211 µM	88.3	89.2	49.8
RPMI 5 mM glucose + 10% FBS, 0.0632 µM	82	86	42.1
RPMI 5 mM glucose + 10% FBS, 0.19 µM	79.2	88.9	46.3
RPMI 5 mM glucose + 10% FBS, 0.569 µM	81.4	86.4	49.3
RPMI 5 mM glucose + 10% FBS, 1.71 µM	87	82.5	38.9
RPMI 5 mM glucose + 10% FBS, 5.12 µM	81.4	82.6	43.4
RPMI 5 mM glucose + 10% FBS, 15.4 µM	81.8	80.3	33.5
RPMI 5 mM glucose + 10% FBS, 46.1 µM	88.5	85.6	27.8
RPMI 5 mM glucose + 10% dialyzed FBS, 0.000781 µM	85.1	93.4	74.2
RPMI 5 mM glucose + 10% dialyzed FBS, 0.00234 µM	94.8	91.6	49.4
RPMI 5 mM glucose + 10% dialyzed FBS, 0.00702 µM	101	93.1	51.3
RPMI 5 mM glucose + 10% dialyzed FBS, 0.0211 µM	82.3	88.9	36.6
RPMI 5 mM glucose + 10% dialyzed FBS, 0.0632 µM	90.5	96.6	30.4
RPMI 5 mM glucose + 10% dialyzed FBS, 0.19 µM	90.8	92.1	36
RPMI 5 mM glucose + 10% dialyzed FBS, 0.569 µM	90.8	101	31.3
RPMI 5 mM glucose + 10% dialyzed FBS, 1.71 µM	93.1	92.4	33.6
RPMI 5 mM glucose + 10% dialyzed FBS, 5.12 µM	92.9	87.7	27.5
RPMI 5 mM glucose + 10% dialyzed FBS, 15.4 µM	92.1	93.8	23.5
RPMI 5 mM glucose + 10% dialyzed FBS, 46.1 µM	89.7	88.5	24.6
